Laboratory results: article PMC9570594, “Development of Novel Pyridine-Thiazole Hybrid Molecules as Potential Anticancer Agents” (Molecules, 2022)

Assays:
MCF-7 cell line = test: Time-dependent viability test (MTT); type: cell-based, human; details: MCF-7, 10 µM
Experimental: A strong correlation was detected between the treatment time and an anti-proliferative potential. The cytotoxic effect of this compound develops after […] of incubation. This feature may explain the difference of cell viability compared with the NCI results which were obtained at 48th hour of incubation of cells with derivative 4. […] The result obtained at 48th hour of treatment of the MCF-7 cells with the compound 4 in concentration 10 µM correlates to some extent with data of the NCI screening. At that time point, 43% of the cells died.
Time-dependent viability data were obtained as a result of 24, 48, 72, and 124 h MTT tests performed on the MCF-7 cells treated with the compound 4 (10 μM).

LOX IMVI (Melanoma) [1] = test: NCI one-dose SRB assay; details: 10 μM, 48 h
Experimental: (§1) Primary anticancer assays (Table 3) on a panel of 60 cancer cell lines at one dose-assay (10^−5 M) were performed according to the NCI protocol, as described elsewhere [31, 32, 33, 34, 35].
(§2) A primary anticancer assay was performed on a panel of approximately sixty human tumor cell lines derived from nine neoplastic diseases, in accordance with the protocol of the Drug Evaluation Branch, National Cancer Institute, Bethesda [31, 32, 33, 34, 35]. Tested compounds were added to the culture at a single concentration (10^−5 M) and the cultures were incubated for 48 h. End point determinations were made with a protein binding dye, Sulphorhodamine B (SRB). […] The percentage growth was evaluated spectrophotometrically versus controls not treated with test agents.

CAKI-1 (Renal Cancer) = test: NCI five-dose SRB assay; type: cell-based; details: Homo sapiens, 48 h
UACC-257 (Melanoma) = test: NCI five-dose SRB assay; type: cell-based; details: Homo sapiens, 48 h
[2] = tested on: NCI-H322M (Non-Small Cell Lung Cancer); test: NCI five-dose SRB assay; type: cell-based; details: Homo sapiens, 48 h
MCF-7 cells = test: Clonogenic assay; type: cell-based, human; details: 10 days
Experimental: This assay essentially tests every cell in the population for its ability to undergo “unlimited” division. […] At 1 µM concentration, it reduced the ability of the MCF-7 single cell to grow into a colony to 36%. […] With a concentration equivalent to 10 µM of the compound 4, the DMSO increased the cell’s ability to grow in colony.
MCF-7 cells were seeded in triplicate in 6-well plates (CytoONE, STARLAB International GmbH, Germany) at a density of 500 cells per well. After 24 h incubation, the compound 4 was added in 1 and 10 μM concentrations and cells were treated for 10 days. Colonies containing ≥ 50 cells were fixed with 50% (v/v) methanol in the PBS and stained with crystal violet (Sigma-Aldrich, Burlington, MA, USA). Stained colonies were counted and expressed as a fraction of the untreated control.

OVCAR-4 (Ovarian Cancer) = test: NCI five-dose SRB assay; type: cell-based; details: Homo sapiens, 48 h
[3] = tested on: Colon Cancer cell lines (MG_MID); test: NCI five-dose SRB assay; type: cell-based; details: Homo sapiens, 48 h
[4] = tested on: Leukemia cell lines (MG_MID); test: NCI five-dose SRB assay; type: cell-based; details: Homo sapiens, 48 h
KB3-1 cells = test: Fluorescent microscopy of morphological changes (Hoechst 33342/PI); type: cell-based, human; details: KB3-1, 5 µM, 48 h
Experimental: In addition, we observed multinucleated giant cells. […] The condensed chromatin, a characteristic feature of apoptosis, and dead cells were observed under the action of all studied compounds.
KB3-1 cells were seeded in the 12-well plates (CytoONE, STARLAB International GmbH, Hamburg, Germany) on glass microscopic slides and incubated overnight. Studied compounds were added to cells in the following concentrations: the compounds 3, 4 and cisplatin—5 µM/mL, doxorubicin—1 µM/mL. Cells were incubated for the next 48 h. Chromatin material of living and apoptotic cells was stained with the DNA-specific fluorescent dye Hoechst 33342 (Sigma-Aldrich, Burlington, MA, USA) and the DNA/RNA-specific fluorescent dye Propidium iodide (PI, Sigma, Burlington, MA, USA). Fluorochromes were added to cultured cells at final concentrations 0.2–0.5 μg/mL for Hoechst 33342 and 0.1 μg/mL—for PI. Images were made with a fluorescent Zeiss microscope (Carl Zeiss, Oberkochen, Germany). Magnification ×400. Microphotographs were additionally analyzed using ImagePro7N software.

SK-OV-3 (Ovarian Cancer) = test: NCI five-dose SRB assay; type: cell-based; details: Homo sapiens, 48 h
LOX IMVI (Melanoma) [5] = test: NCI five-dose SRB assay; type: cell-based; details: Homo sapiens, 48 h
[6] = tested on: Renal Cancer cell lines (MG_MID); test: NCI five-dose SRB assay; type: cell-based; details: Homo sapiens, 48 h
KB3-1 (cervix) = test: MTT assay of cell viability; details: Homo sapiens, KB 3-1, 72 h, KB3-1; 72 h of incubation, M ± SD
HCT-15 (Colon Cancer) = test: NCI one-dose SRB assay; details: 10 μM, 48 h
Experimental: Tested compounds were added to the culture at a single concentration (10^−5 M) and the cultures were incubated for 48 h. End point determinations were made with a protein binding dye, Sulphorhodamine B (SRB). […] The percentage growth was evaluated spectrophotometrically versus controls not treated with test agents.

K-562 (Leukemia) = test: NCI five-dose SRB assay; type: cell-based; details: Homo sapiens, K562, 48 h
SN12C (Renal Cancer) = test: NCI five-dose SRB assay; type: cell-based; details: Homo sapiens, 48 h
[7] = tested on: panel of cancer cell lines; test: MTT assay, summary over the tumor cell lines; details: Homo sapiens, 72 h, read-out: IC50 toward tumor cells (depending on tumor cell line)
Jurkat (leukemia) = test: MTT assay of cell viability; details: Homo sapiens, 72 h
SNB-19 (CNS Cancer) = test: NCI five-dose SRB assay; type: cell-based; details: Homo sapiens, 48 h
786-0 (Renal Cancer) = test: NCI five-dose SRB assay; type: cell-based; details: Homo sapiens, 48 h
Colo 205 (Colon Cancer) = test: NCI one-dose SRB assay; details: 10 μM, 48 h
MCF-7 (breast) = test: MTT assay of cell viability; details: Homo sapiens, MCF7, 72 h, MCF-7; 72 h of incubation, M ± SD
[8] = tested on: NCI-H522 (Non-Small Cell Lung Cancer); test: NCI one-dose SRB assay; details: 10 μM, 48 h
Experimental: as §1, §2

SK-MEL-28 (Melanoma) = test: NCI five-dose SRB assay; type: cell-based; details: Homo sapiens, 48 h
[9] = tested on: human embryonic kidney HEK293 cells; test: MTT assay of cell viability; details: HEK293, 72 h
[10] = tested on: NCI/ADR-RES (Ovarian Cancer); test: NCI five-dose SRB assay; type: cell-based; details: Homo sapiens, 48 h
[11] = tested on: NCI-H522 (Non-Small Cell Lung Cancer); test: NCI five-dose SRB assay; type: cell-based; details: Homo sapiens, 48 h
U251 (CNS Cancer) = test: NCI one-dose SRB assay; details: 10 μM, 48 h
Experimental: as §2

For `CCOC(=O)c1ccc(NC(=O)CSC(CC(=O)c2sc(Nc3ccccn3)nc2C)c2ccccc2F)cc1` (centres unmarked) [Compound 4, Ethyl 4-[[2-[1-(2-Fluorophenyl)-3-[4-methyl-2-(2-pyridylamino)thiazol-5-yl]-3-oxopropyl]sulfanylacetyl]amino]benzoate], the cells killed (MCF-7 cell line; 24 h) was 19.9%, the cells died (MCF-7 cell line; 48 h) was 43% and the cells died (MCF-7 cell line; 124 h) was 90%. It also gave a Growth % (LOX IMVI (Melanoma) [1]) of −76.78%, a GI50 (CAKI-1 (Renal Cancer)) of 11.5 µM and a GI50 (UACC-257 (Melanoma)) of 38.4 µM. The GI50 [2] was 25.4 µM, the “ability of single cell to grow into a colony (compared with control)” value (MCF-7 cells; MCF-7, 1 µM) was 36% and the colony formation (MCF-7 cells; MCF-7, 10 µM) was “No colony formation was observed”. For the same molecule, the GI50 (OVCAR-4 (Ovarian Cancer)) was 66.1 µM, the GI50 [3] was 51.6 µM and the GI50 [4] was 22.5 µM. For the same molecule, the morphological changes (KB3-1 cells) was “changes in nuclear morphology, similar to a mitotic catastrophe”, the GI50 (SK-OV-3 (Ovarian Cancer)) was 26 µM and the GI50 (LOX IMVI (Melanoma) [5]) was 0.312 µM. For the same molecule, the GI50 [6] was 33.4 µM, the IC50 (KB3-1 (cervix)) was 7.63 ± 0.38 µM and the Growth % (HCT-15 (Colon Cancer)) was −42.04%. The GI50 (K-562 (Leukemia)) was 30.4 µM, the GI50 (SN12C (Renal Cancer)) was 28 µM and the IC50 [7] was 0.57 to 7.8 µM. For the same molecule, the IC50 (Jurkat (leukemia)) was 5.36 ± 0.16 µM, the GI50 (SNB-19 (CNS Cancer)) was 36.9 µM and the GI50 (786-0 (Renal Cancer)) was 24.8 µM. For the same molecule, the Growth % (Colo 205 (Colon Cancer)) was −34.08%, the IC50 (MCF-7 (breast)) was 2.79 ± 1.31 µM and the Growth % [8] was −22.73%. For the same molecule, the GI50 (SK-MEL-28 (Melanoma)) was 38.7 µM, the IC50 [9] was > 50 µM and the GI50 [10] was 24.1 µM. It also gave a GI50 [11] of 21.6 µM and a Growth % (U251 (CNS Cancer)) of −70.41%.
